Patent US20190359645A1, “2'3'-CYCLIC DINUCLEOTIDES COMPRISING CARBOCYCLIC NUCLEOTIDE” (Institute of Organic Chemistry and Biochemistry ASCR, V.V.I., priority 2018, published 2019)

Columns and labels:
AQ STING (G230A-R293Q) = target: T1, AQ STING (G230A-R293Q) (Homo sapiens, UniProt Q86WV6, G230A/H232R/R293Q); assay: Differential scanning fluorimetry (DSF) with AQ STING; format: binding; settings: thermal shift, truncated human AQ STING 0.1 mg/ml, 150 μM CDN; for ΔTm at 150 µM: read-out: DSF ΔTm AQ STING
T1 construct: truncated human WT STING or AQ STING (amino acid residues 140-343); 8xHis (N, cleaved yes); SUMO (N, cleaved yes); made in house; host or cells: E. coli Rosetta-gami B (DE3)
Description: (§1) Both WT and AQ human STING (G230A-R^293Q) cDNA were amplified by the use of PCR (Phusion® High-Fidelity DNA Polymerase, cat. # M0530S, NEB, Ipswich, USA) using oligonucleotides hSTING140-BamH-For ([…]) (SEQ ID NO:5) and hSTING379-Not-Rev3 ([…]) (SEQ ID NO:6) from pUNOI-hSTING-WT (cat. # punol-hstingwt, InvivoGen, San Diego, USA) and pUNO1-hSTING-HAQ plasmids (punol-hsting-haq, InvivoGen, San Diego, USA). Purified PCR products were cleaved with restriction enzymes BamHI (cat. # R^0136S, NEB, Ipswich, USA) and NotI (cat. # R^0189S, NEB, Ipswich, USA) and cloned into the pSUMO vector linearized with the identical enzymes. Plasmid pSUMO was created by introducing 8-His-SUMO sequence between NdeI and BamHI sites of pHis-parallel2 plasmid (Clontech, Moutain View, USA). pSUMO-STING WT or pSUMO-STING AQ plasmids thus encoded truncated human WT STING or AQ STING (amino acid residues 140-343) with N-terminal 8×His and SUMO tag.
(§2) The recombinant WT STING and AQ STING proteins were overexpressed in Rosetta-gami B (DE3) competent cells (cat. #71136-3, Merck Millipore, Billerica, USA). Bacterial pellets were re-suspended in ice-cold lysis buffer containing 50 mmol·l^−1 TrisCl (cat. # T1503, Sigma Aldrich, Czech Republic) pH 8.0, 300 mmol·l^−1 NaCl, 3 mmol·l^−1 (3-mercaptoethanol (cat. # M6250, Sigma Aldrich, Czech Republic), 10% glycerol (cat. #G5516, Sigma Aldrich, Czech Republic) and 20 mmol·l^−1 imidazole (cat. #15513, Sigma Aldrich, Czech Republic) using Dounce homogenizer. DNase I (cat. # D5025, Sigma Aldrich, Czech Republic) and RNase A (cat. # R^6513, Sigma Aldrich, Czech Republic) were added (final concentration 50 μg/ml) together with MgCl2 (final concentration 5 mmol·l^−1) to the homogenate and bacteria were lysed using French Press G-M™ High-Pressure Cell Press Homogenizer (1500 psi, 3 cycles). Lysate was spun 30,000 g for 20 minutes and supernatant was gently stirred with Ni-NTA resin (cat. #745400.25 Macherey-Nagel, Duren, Germany) for 30 minutes. The resin was poured into a chromatography column, washed with 50 ml buffer A (50 mmol·l^−1 TrisCl (pH 8.0), 800 mmol·l^−1 NaCl, 3 mmol·l^−1β-mercaptoethanol; 10% glycerol; 20 mmol·l^−1 imidazole) and 8-His-SUMO tagged STING proteins were eluted with 15 ml buffer A containing 300 mmol·l^−1 imidazole. The eluted proteins were cleaved with recombinant SUMO protease (80 pig/ml of protein solution, cat. #12588018, ThermoFisher, Waltham, USA). The proteins were further purified by size exclusion chromatography using HiLoad 16/60 Superdex 75 (cat. #28989333, GE Healthcare Bio-Sciences, Pittsburgh, USA) in 50 mmol·l^−1 Tris C1 buffer pH 7.4 containing 150 mmol·l^−1 NaCl, and 10% glycerol. Proteins were concentrated with Amicon® Ultra-15 10 K device (cat. # UFC901008, Merck Millipore, Billerica, USA) and flash frozen in liquid N2.
(§3) WT and AQ allelic forms of STING protein were diluted to the final concentration 0.1 mg/ml in 100 mmol·l^−1 TrisCl buffer pH 7.4 containing, 150 mmol·l^−1 NaCl, 1:500 SYPRO Orange (cat. # S6650, ThermoFisher, Waltham, USA) and 150 μM CDN or water. 20 μL solutions of the reaction mixtures were pipetted in triplicates into 96 well optical reaction plates and thermal denaturation of samples were performed on real time PCR cycler (LightCycler® 480 Instrument II—Roche, Basel, Switzerland). The first derivative of the thermal denaturation curves was performed to calculate denaturing temperatures of STING-CDN complexes and STING apoproteins. The thermal shift for each CDN was calculated by subtracting the average denaturing temperature of STING apoprotein from the average denaturing temperature of STING CDN complex.

WT STING = WT STING (Homo sapiens, UniProt Q86WV6, H232R); assay: Differential scanning fluorimetry (DSF) with WT STING; format: binding; design: truncated human WT STING or AQ STING (amino acid residues 140-343); 8xHis (N, cleaved yes); SUMO (N, cleaved yes); made in house; host or cells: E. coli Rosetta-gami B (DE3); settings: thermal shift, truncated human WT STING 0.1 mg/ml, 150 μM CDN; for ΔTm at 150 µM: read-out: DSF ΔTm WT STING
Description: as §1, §2, §3

WT STING, sequence (Q86WV6 140-343 H232R): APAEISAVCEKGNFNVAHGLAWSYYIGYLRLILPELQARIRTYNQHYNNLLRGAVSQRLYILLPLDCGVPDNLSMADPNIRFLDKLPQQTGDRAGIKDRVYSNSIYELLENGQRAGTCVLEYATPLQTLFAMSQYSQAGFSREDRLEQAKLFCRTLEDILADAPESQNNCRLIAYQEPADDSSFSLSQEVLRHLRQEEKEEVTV
T1 sequence (Q86WV6 140-343 G230A/H232R/R293Q): as the sequence (Q86WV6 140-343 H232R) above, with G91A, R154Q counted along it

Structure (SMILES)	ΔTm at 150 µM (AQ STING (G230A-R293Q)) [°C]	ΔTm at 150 µM (WT STING) [°C]	DSF ΔTm AQ STING (AQ STING (G230A-R293Q)) [°C]	DSF ΔTm WT STING (WT STING) [°C]
Nc1nc2c(ncn2[C@@H]2C[C@@H]3COP(=O)(O)OC4C(O)[C@H](n5cnc6c(N)nc(F)nc65)O[C@@H]4COP(=O)(O)OC2C3O)c(=O)[nH]1 (stereo partly drawn) [Compound 103, (6R,8R,15R,17R)-8-(6-amino-2-fluoro-9H-purin-9-yl)-17-(2-amino-6-oxo-6,9-dihydro-1H-purin-9-yl)-3,9,12,18-tetrahydroxy-2,4,7,11,13-pentaoxa-3λ^5,12λ^5-diphosphatricyclo[13.2.1.0^6,10]octadecane-3,12-dione]	15.2	7.9	–	–
Nc1nc2c(ncn2[C@@H]2C[C@@H]3COP(=O)(O)OC4C(N)[C@H](n5cnc6c(N)ncnc65)O[C@@H]4COP(=O)(O)OC2C3O)c(=O)[nH]1 (stereo partly drawn) [Compound 109, (6R,8R,15R,17R)-9-amino-17-(2-amino-6-oxo-6,9-dihydro-1H-purin-9-yl)-8-(6-amino-9H-purin-9-yl)-3,12,18-trihydroxy-2,4,7,11,13-pentaoxa-3λ^5,12λ^5-diphosphatricyclo[13.2.1.0^6,10]octadecane-3,12-dione]	12.8	5.6	–	–
Nc1nc2c(ncn2[C@@H]2C[C@@H]3COP(=O)(O)OC4C(O)[C@H](n5cnc6c(Cl)ncnc65)O[C@@H]4COP(=O)(O)OC2C3O)c(=O)[nH]1 (stereo partly drawn) [Compound 115, (6R,8R,15R,17R)-17-(2-amino-6-oxo-6,9-dihydro-1H-purin-9-yl)-8-(6-chloro-9H-purin-9-yl)-3,9,12,18-tetrahydroxy-2,4,7,11,13-pentaoxa-3λ^5,12λ^5-diphosphatricyclo[13.2.1.0^6,10]octadecane-3,12-dione]	14.2	6.3	–	–
Nc1ncc2ncn([C@@H]3O[C@@H]4COP(=O)(O)OC5C(O)[C@@H](COP(=O)(O)OC4C3O)C[C@H]5n3cnc4c(=O)[nH]cnc43)c2n1 (stereo partly drawn) [Compound 119, (6R,8R,15R,17R)-8-(2-amino-9H-purin-9-yl)-3,9,12,18-tetrahydroxy-17-(6-oxo-6,9-dihydro-1H-purin-9-yl)-2,4,7,11,13-pentaoxa-3λ^5,12λ^5-diphosphatricyclo[13.2.1.0^6,10]octadecane-3,12-dione]	13.7	5.2	–	–
Nc1nc2c(ncn2[C@@H]2C[C@@H]3COP(=O)(O)OC4C(O)[C@H](n5nnc6c(N)ncnc65)O[C@@H]4COP(=O)(O)OC2C3O)c(=O)[nH]1 (stereo partly drawn) [Compound 116, (6R,8R,15R,17R)-8-{7-amino-3H-[1,2,3]triazolo[4,5-d]pyrimidin-3-yl}-17-(2-amino-6-oxo-6,9-dihydro-1H-purin-9-yl)-3,9,12,18-tetrahydroxy-2,4,7,11,13-pentaoxa-3λ^5,12λ^5-diphosphatricyclo[13.2.1.0^6,10]octadecane-3,12-dione]	8.9	0.9	–	–
Nc1nc2c(ncn2[C@@H]2C[C@@H]3COP(=O)(O)OC4C(O)[C@H](n5cnc6c(=O)[nH]cnc65)O[C@@H]4COP(=O)(O)OC2C3O)c(=O)[nH]1 (stereo partly drawn) [Compound 104, (6R,8R,15R,17R)-17-(2-amino-6-oxo-6,9-dihydro-1H-purin-9-yl)-3,9,12,18-tetrahydroxy-8-(6-oxo-6,9-dihydro-1H-purin-9-yl)-2,4,7,11,13-pentaoxa-3λ^5,12λ^5-diphosphatricyclo[13.2.1.0^6,10]octadecane-3,12-dione]	13.3	5	–	–
CSc1nc(N)nc2c1ncn2[C@@H]1O[C@@H]2COP(=O)(O)OC3C(O)[C@@H](COP(=O)(O)OC2C1O)C[C@H]3n1cnc2c(=O)[nH]c(N)nc21 (stereo partly drawn) [Compound 112, (6R,8R,15R,17R)-8-[2-amino-6-(methylsulfanyl)-9H-purin-9-yl]-17-(2-amino-6-oxo-6,9-dihydro-1H-purin-9-yl)-3,9,12,18-tetrahydroxy-2,4,7,11,13-pentaoxa-3λ^5,12λ^5-diphosphatricyclo[13.2.1.0^6,10]octadecane-3,12-dione]	4.7	0.6	–	–
Nc1nc(N)c2ncn([C@@H]3O[C@@H]4COP(=O)(O)OC5C(O)[C@@H](COP(=O)(O)OC4C3F)C[C@H]5n3cnc4c(=O)[nH]c(N)nc43)c2n1 (stereo partly drawn) [Compound 117, (6R,8R,15R,17R)-17-(2-amino-6-oxo-6,9-dihydro-1H-purin-9-yl)-8-(2,6-diamino-9H-purin-9-yl)-9-fluoro-3,12,18-trihydroxy-2,4,7,11,13-pentaoxa-3λ^5,12λ^5-diphosphatricyclo[13.2.1.0^6,10]octadecane-3,12-dione]	17	9.4	–	–

Other lines, results leading:

ΔTm at 150 µM (AQ STING (G230A-R293Q)) [°C]	ΔTm at 150 µM (WT STING) [°C]	DSF ΔTm AQ STING (AQ STING (G230A-R293Q)) [°C]	DSF ΔTm WT STING (WT STING) [°C]	Structure (SMILES)
14.6	6.7	–	–	Nc1ncnc2c1ccn2[C@@H]1O[C@@H]2COP(=O)(O)OC3C(O)[C@@H](COP(=O)(O)OC2C1O)C[C@H]3n1cnc2c(=O)[nH]cnc21 (stereo partly drawn) [Compound 122, (6R,8R,15R,17R)-8-{4-amino-7H-pyrrolo[2,3-d]pyrimidin-7-yl}-3,9,12,18-tetrahydroxy-17-(6-oxo-6,9-dihydro-1H-purin-9-yl)-2,4,7,11,13-pentaoxa-3λ^5,12λ^5-diphosphatricyclo[13.2.1.0^6,10]octadecane-3,12-dione]
11.3	5.6	–	–	Nc1ncnc2c1c(I)cn2[C@@H]1O[C@@H]2COP(=O)(O)OC3C(O)[C@@H](COP(=O)(O)OC2C1O)C[C@H]3n1cnc2c(=O)[nH]cnc21 (stereo partly drawn) [Compound 124, (6R,8R,15R,17R)-8-{4-amino-5-iodo-7H-pyrrolo[2,3-d]pyrimidin-7-yl}-3,9,12,18-tetrahydroxy-17-(6-oxo-6,9-dihydro-1H-purin-9-yl)-2,4,7,11,13-pentaoxa-3λ^5,12λ^5-diphosphatricyclo[13.2.1.0^6,10]octadecane-3,12-dione]
–	–	13.8	7.9	Nc1ncnc2c1ncn2[C@@H]1O[C@@H]2COP(=O)(S)O[C@@H]3[C@H](F)[C@@H](COP(=O)(S)O[C@H]2[C@H]1F)C[C@H]3n1cnc2c(=O)[nH]cnc21 (single isomer, unassigned) [Compound 128b]
11.4	4.2	–	–	CSc1ncnc2c1ncn2[C@@H]1O[C@@H]2COP(=O)(O)OC3C(O)[C@@H](COP(=O)(O)OC2C1O)C[C@H]3n1cnc2c(=O)[nH]cnc21 (stereo partly drawn) [Compound 125, (1S,6R,8R,9R,10S,15R,17R,18R)-3,9,12,18-tetrahydroxy-8-[16-(methylsulfanyl)-9H-purin-9-yl]-17-(6-oxo-6,9-dihydro-1H-purin-9-yl)-2,4,7,11,13-pentaoxa-3λ^5,12λ^5-diphosphatricyclo[13.2.1.0^6,10]octadecane-3,12-dione]
